Measured values reported in PubChem BioAssay AID2060623 (Molecular Pharmacology Branch, DTP, NCI, 2025).

System: 227483-062-R1-J1-PDC complex spheroids with HUVEC/MSC, viability
Experiment: Anticancer human tumor 227483-062-R1-J1-PDC patient-derived pancreatic carcinoma cell line growth inhibition [CLK]
Details: for IC50: curve of first compound; for viability, T/C: stronger effect = lower value
Outline: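 Multi-cell-type spheroids combined patient-derived tumor cells with HUVEC endothelial cells and human mesenchymal stem cells. Paired agents were dosed in half-log steps down from about clinical Cmax, or from 10 microM where Cmax was unknown.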

[1] = second compound 0.0316 µM, first compound 0.0316 µM
[2] = second compound 0.0316 µM, first compound 0.1 µM
[3] = second compound 0.1 µM, first compound 0.0316 µM
[4] = second compound 0.1 µM, first compound 0.1 µM
[5] = second compound 0.316 µM, first compound 0.0316 µM
[6] = second compound 0.316 µM, first compound 0.1 µM
[7] = second compound 1 µM, first compound 0.0316 µM
[8] = second compound 1 µM, first compound 0.1 µM
[9] = second compound 3.16 µM, first compound 0.0316 µM
[10] = second compound 3.16 µM, first compound 0.1 µM
[11] = second compound 10 µM, first compound 0.0316 µM
[12] = second compound 10 µM, first compound 0.1 µM
[13] = second compound 0.0316 µM, first compound 0.316 µM
[14] = second compound 0.0316 µM, first compound 1 µM
[15] = second compound 0.0316 µM, first compound 3.16 µM
[16] = second compound 0.0316 µM, first compound 10 µM
[17] = second compound 0.1 µM, first compound 0.316 µM
[18] = second compound 0.1 µM, first compound 1 µM
[19] = second compound 0.1 µM, first compound 3.16 µM
[20] = second compound 0.1 µM, first compound 10 µM
[21] = second compound 0.316 µM, first compound 0.316 µM
[22] = second compound 0.316 µM, first compound 1 µM
[23] = second compound 0.316 µM, first compound 3.16 µM
[24] = second compound 0.316 µM, first compound 10 µM
[25] = second compound 1 µM, first compound 0.316 µM
[26] = second compound 1 µM, first compound 1 µM
[27] = second compound 1 µM, first compound 3.16 µM
[28] = second compound 1 µM, first compound 10 µM
[29] = second compound 3.16 µM, first compound 0.316 µM
[30] = second compound 3.16 µM, first compound 1 µM
[31] = second compound 3.16 µM, first compound 3.16 µM
[32] = second compound 3.16 µM, first compound 10 µM
[33] = second compound 10 µM, first compound 0.316 µM
[34] = second compound 10 µM, first compound 1 µM
[35] = second compound 10 µM, first compound 3.16 µM
[36] = second compound 10 µM, first compound 10 µM
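Note: spheroids exposed to compounds for seven days before readout.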
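Throughout, for viability, T/C: percent of DMSO vehicle control luminescence as 100% viability.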

## Cn1ncnc1[C@H]1c2n[nH]c(=O)c3cc(F)cc(c23)N[C@@H]1c1ccc(F)cc1 + CNC(=O)c1ccc(Nc2nc(OC3CCCC3)c3c(-c4ccc5nc(C)oc5c4)c[nH]c3n2)c(OC)c1
Second compound 0.0316 µM
  IC50: > 100 nM
Second compound 0.1 µM
  IC50: > 100 nM
Second compound 0.316 µM
  IC50: > 100 nM
Second compound 1 µM
  IC50: > 100 nM
Second compound 3.16 µM
  IC50: < 0.316 nM
Second compound 10 µM
  IC50: < 0.316 nM
Second compound 0.0316 µM, first compound 0.000316 µM
  viability, T/C: 87.5%
Second compound 0.0316 µM, first compound 0.001 µM
  viability, T/C: 111%
Second compound 0.0316 µM, first compound 0.00316 µM
  viability, T/C: 118%
Second compound 0.0316 µM, first compound 0.01 µM
  viability, T/C: 100%
[1]
  viability, T/C: 89.1%
[2]
  viability, T/C: 97.1%
Second compound 0.1 µM, first compound 0.000316 µM
  viability, T/C: 111%
Second compound 0.1 µM, first compound 0.001 µM
  viability, T/C: 120%
Second compound 0.1 µM, first compound 0.00316 µM
  viability, T/C: 106%
Second compound 0.1 µM, first compound 0.01 µM
  viability, T/C: 97.4%
[3]
  viability, T/C: 97%
[4]
  viability, T/C: 109%
Second compound 0.316 µM, first compound 0.000316 µM
  viability, T/C: 105%
Second compound 0.316 µM, first compound 0.001 µM
  viability, T/C: 84.2%
Second compound 0.316 µM, first compound 0.00316 µM
  viability, T/C: 78.5%
Second compound 0.316 µM, first compound 0.01 µM
  viability, T/C: 94.4%
[5]
  viability, T/C: 94.4%
[6]
  viability, T/C: 70.4%
Second compound 1 µM, first compound 0.000316 µM
  viability, T/C: 69%
Second compound 1 µM, first compound 0.001 µM
  viability, T/C: 59.7%
Second compound 1 µM, first compound 0.00316 µM
  viability, T/C: 59.8%
Second compound 1 µM, first compound 0.01 µM
  viability, T/C: 67.4%
[7]
  viability, T/C: 71.9%
[8]
  viability, T/C: 58%
Second compound 3.16 µM, first compound 0.000316 µM
  viability, T/C: 40.7%
Second compound 3.16 µM, first compound 0.001 µM
  viability, T/C: 44.9%
Second compound 3.16 µM, first compound 0.00316 µM
  viability, T/C: 51.2%
Second compound 3.16 µM, first compound 0.01 µM
  viability, T/C: 48.5%
[9]
  viability, T/C: 49.4%
[10]
  viability, T/C: 41.3%
Second compound 10 µM, first compound 0.000316 µM
  viability, T/C: 40.5%
Second compound 10 µM, first compound 0.001 µM
  viability, T/C: 39.3%
Second compound 10 µM, first compound 0.00316 µM
  viability, T/C: 36.5%
Second compound 10 µM, first compound 0.01 µM
  viability, T/C: 34.2%
[11]
  viability, T/C: 41%
[12]
  viability, T/C: 29.3%

## Nc1ccn(C2OC(CO)C(O)C2(F)F)c(=O)n1 (stereo unspecified) + CNC(=O)c1ccc(Nc2nc(OC3CCCC3)c3c(-c4ccc5nc(C)oc5c4)c[nH]c3n2)c(OC)c1
Second compound 0.0316 µM
  IC50: 67.5 nM
Second compound 0.1 µM
  IC50: 78.5 nM
Second compound 0.316 µM
  IC50: 52.4 nM
Second compound 1 µM
  IC50: < 31.6 nM
Second compound 3.16 µM
  IC50: < 31.6 nM
Second compound 10 µM
  IC50: < 31.6 nM
[1]
  viability, T/C: 77.5%
[2]
  viability, T/C: 34.3%
[13]
  viability, T/C: 34.2%
[14]
  viability, T/C: 34.4%
[15]
  viability, T/C: 28.2%
[16]
  viability, T/C: 20%
[3]
  viability, T/C: 93.3%
[4]
  viability, T/C: 36.2%
[17]
  viability, T/C: 35.6%
[18]
  viability, T/C: 34.2%
[19]
  viability, T/C: 26.8%
[20]
  viability, T/C: 19.3%
[5]
  viability, T/C: 62.2%
[6]
  viability, T/C: 32.6%
[21]
  viability, T/C: 27.1%
[22]
  viability, T/C: 28.9%
[23]
  viability, T/C: 21.8%
[24]
  viability, T/C: 15.8%
[7]
  viability, T/C: 49.2%
[8]
  viability, T/C: 28.6%
[25]
  viability, T/C: 20.2%
[26]
  viability, T/C: 21.1%
[27]
  viability, T/C: 15.5%
[28]
  viability, T/C: 12.6%
[9]
  viability, T/C: 29%
[10]
  viability, T/C: 20.8%
[29]
  viability, T/C: 19.6%
[30]
  viability, T/C: 15.9%
[31]
  viability, T/C: 13.3%
[32]
  viability, T/C: 11%
[11]
  viability, T/C: 23.6%
[12]
  viability, T/C: 22%
[33]
  viability, T/C: 16.7%
[34]
  viability, T/C: 15.2%
[35]
  viability, T/C: 13.6%
[36]
  viability, T/C: 9.42%

## O=c1[nH]cc(F)c(=O)[nH]1 + CNC(=O)c1ccc(Nc2nc(OC3CCCC3)c3c(-c4ccc5nc(C)oc5c4)c[nH]c3n2)c(OC)c1
Second compound 0.0316 µM
  IC50: 1740 nM
Second compound 0.1 µM
  IC50: 1020 nM
Second compound 0.316 µM
  IC50: 931 nM
Second compound 1 µM
  IC50: 320 nM
Second compound 3.16 µM
  IC50: < 31.6 nM
Second compound 10 µM
  IC50: < 31.6 nM
[1]
  viability, T/C: 94.6%
[2]
  viability, T/C: 88.3%
[13]
  viability, T/C: 108%
[14]
  viability, T/C: 62.9%
[15]
  viability, T/C: 41%
[16]
  viability, T/C: 31.2%
[3]
  viability, T/C: 104%
[4]
  viability, T/C: 93.8%
[17]
  viability, T/C: 73.8%
[18]
  viability, T/C: 50.1%
[19]
  viability, T/C: 38.4%
[20]
  viability, T/C: 36%
[5]
  viability, T/C: 71.4%
[6]
  viability, T/C: 91.7%
[21]
  viability, T/C: 66.5%
[22]
  viability, T/C: 47.5%
[23]
  viability, T/C: 37.1%
[24]
  viability, T/C: 24.5%
[7]
  viability, T/C: 80.6%
[8]
  viability, T/C: 56.2%
[25]
  viability, T/C: 60.5%
[26]
  viability, T/C: 32.5%
[27]
  viability, T/C: 22.4%
[28]
  viability, T/C: 18.7%
[9]
  viability, T/C: 46.7%
[10]
  viability, T/C: 46.9%
[29]
  viability, T/C: 41.2%
[30]
  viability, T/C: 26.4%
[31]
  viability, T/C: 18.1%
[32]
  viability, T/C: 13.8%
[11]
  viability, T/C: 44.8%
[12]
  viability, T/C: 39%
[33]
  viability, T/C: 33.1%
[34]
  viability, T/C: 23.5%
[35]
  viability, T/C: 18.9%
[36]
  viability, T/C: 14.6%
